# Assays:
# Format in all cases: in vivo
# [1] = tested on: Human diffuse large B-cell lymphoma cell line WSU-DLCL2; experiment: Antitumor study (9): WSU-DLCL2 subcutaneous xenograft; conditions: Day 44; WSU-DLCL2 s.c. in female SCID mice; Compound A feed mix 0.25% Day 16 to Day 44; CD37-ADC (1) 1 mg/kg i.v. Day 16
# Description: (§1) Measurement and calculation formula: In all studies, the major axis and minor axis of tumors were measured once a week or twice a week with an electronic digital caliper, and the estimated tumor volume (mm^3) was calculated. The calculation formula is as shown below.
# (§2) Tumor growth inhibition (TGI) was calculated in accordance with the following calculation formula.
# (§3) [formula] • T: Average estimated tumor volume of mice of test substance administration group • C: Average estimated tumor volume of mice of control group
# (§4) The HER2-ADC (1) was diluted with ABS buffer (10 mM acetate buffer [pH 5.5], 5% sorbitol), and intravenously administered in a fluid volume of 10 mL/kg to the tail vein. The Compound A was orally administered by a feed mix containing 0.3% of Compound A.
# (§5) These methods are common to Examples 5 to 8, and Examples 11 to 16. In Example 12 to Example 16, TROP2-ADC (1), HER3-ADC (1), CD37-ADC (1), or B7-H3-ADC (1) was used in the evaluation. Moreover, the Compound A was orally administered by a feed mix containing 0.25% of Compound A in Example 12 to Example 16.
# Human diffuse large B-cell lymphoma cell line WSU-DLCL2, which was purchased from DSMZ (Deutsche Sammlung von Mikroorganismen und Zellkulturen GmbH), was suspended into DPBS and subcutaneously transplanted at 1×10^7 cells into the right side of each female SCID mouse (CLEA Japan, Inc.) (Day 0). […]
# [2] = tested on: Human breast cancer cell line MDA-MB-453; experiment: Antitumor study (3): MDA-MB-453 subcutaneous xenograft; conditions: Day 74; MDA-MB-453 s.c. in female SCID mice; Compound A feed mix 0.3% Day 18 to Day 46; HER2-ADC (1) 1 mg/kg i.v. Day 22
# Description: as §1, §2, §3, §4, §5
# Human breast cancer cell line MDA-MB-453, which was purchased from ATCC, was suspended into 50% Matrigel matrix and subcutaneously transplanted at 1×10^7 cells into the right side of each female SCID mouse (CLEA Japan, Inc.) (Day 0). Eighteen days later, the mice were divided into groups based on estimated tumor volumes. […]
# [3] = tested on: Human breast cancer cell line JIMT-1; experiment: Antitumor study (2): JIMT-1 subcutaneous xenograft, HER2-ADC (1); conditions: Day 52; JIMT-1 s.c. in female SCID mice; Compound A feed mix 0.3% Day 14 to Day 42; HER2-ADC (1) 10 mg/kg i.v. Day 18
# Description: as §1, §2, §3, §4, §5
# Human breast cancer cell line JIMT-1, which was purchased from DSMZ (Deutsche Sammlung von Mikroorganismen und Zellkulturen GmbH), was suspended into DPBS and subcutaneously transplanted at 5×10^6 cells into the right side of each female SCID mouse (CLEA Japan, Inc.) (Day 0). […]
# [4] = tested on: Human neuroendocrine prostate cancer cell line NCI-H660; experiment: Antitumor study (10): NCI-H660 subcutaneous xenograft; conditions: Day 58; NCI-H660 s.c. in castrated male SCID mice; Compound A feed mix 0.25% Day 29 to Day 58; B7-H3-ADC (1) 0.3 mg/kg i.v. Day 29 and Day 43
# Description: as §1, §2, §3, §4, §5
# Human neuroendocrine prostate cancer cell line NCI-H660, which was purchased from ATCC (American Type Culture Collection), was suspended into 50% Matrigel matrix and subcutaneously transplanted at 2×10^6 cells into the right side of each castrated male SCID mouse (CLEA Japan, Inc.) (Day 0). […]
# [5] = tested on: Human gastric cancer cell line NCI-N87; experiment: Antitumor study (1): NCI-N87 subcutaneous xenograft; conditions: Day 63; NCI-N87 s.c. in female SCID mice; Compound A feed mix 0.3% Day 6 to Day 34; HER2-ADC (1) 2 mg/kg i.v. Day 10
# Description: as §1, §2, §3, §4, §5
# Human gastric cancer cell line NCI-N87, which was purchased from ATCC (American Type Culture Collection), was suspended into DPBS (Dulbecco's phosphate-buffered saline) and subcutaneously transplanted at 1×10^7 cells into the right side of each female SCID (Severe Combined Immunodeficient) mouse (CLEA Japan, Inc.) (Day 0). […]
# [6] = tested on: Human breast cancer cell line MX-1; experiment: Antitumor study (4): MX-1 subcutaneous xenograft; conditions: Day 51; MX-1 s.c. in female SCID mice; Compound A feed mix 0.3% Day 13 to Day 41; HER2-ADC (1) 3 mg/kg i.v. Day 17
# Description: as §1, §2, §3, §4, §5
# Human breast cancer cell line MX-1, which was purchased from CLS (Cell Lines Service), was suspended into 50% Matrigel matrix and subcutaneously transplanted at 5×10^6 cells into the right side of each female SCID mouse (CLEA Japan, Inc.) (Day 0). […]
# [7] = tested on: Human non-small lung cancer cell line Calu-3; experiment: Antitumor study (6): Calu-3 subcutaneous xenograft; conditions: Day 35; Calu-3 s.c. in female SCID mice; Compound A feed mix 0.3% Day 14 to Day 42; HER2-ADC (1) 1 mg/kg i.v. Day 14
# Description: as §1, §2, §3, §4, §5
# Human non-small lung cancer cell line Calu-3, which was purchased from ATCC (American Type Culture Collection), was suspended into Matrigel matrix and subcutaneously transplanted at 3×10^6 cells into the right side of each female SCID mouse (The Jackson Laboratory Japan, Inc.) (Day 0). […]
# [8] = tested on: Human non-small lung cancer cell line NCI-H358; experiment: Antitumor study (7): NCI-H358 subcutaneous xenograft; conditions: Day 115; NCI-H358 s.c. in female SCID mice; Compound A feed mix 0.25% Day 24 to Day 66; TROP2-ADC (1) 10 mg/kg i.v. Day 24 and Day 45
# Description: as §1, §2, §3, §4, §5
# Human non-small lung cancer cell line NCI-H358, which was purchased from ATCC (American Type Culture Collection), was suspended into 50% Matrigel matrix and subcutaneously transplanted at 3×10^6 cells into the right side of each female SCID mouse (CLEA Japan, Inc.) (Day 0). […]
# [9] = tested on: Human breast cancer cell line ZR-75-1; experiment: Antitumor study (5): ZR-75-1 subcutaneous xenograft; conditions: Day 49; ZR-75-1 s.c. in female NSG mice (estradiol cypionate weekly); Compound A feed mix 0.3% Day 14 to Day 42; HER2-ADC (1) 5 mg/kg i.v. Day 14
# Description: as §1, §2, §3, §4
# as §5, with “Example 16. […]” for “Example 16.”
# [10] = tested on: Human breast cancer cell line JIMT-1; experiment: Antitumor study (8): JIMT-1 subcutaneous xenograft, HER3-ADC (1); conditions: Day 46; JIMT-1 s.c. in female SCID mice; Compound A feed mix 0.25% Day 11 to Day 39; HER3-ADC (1) 10 mg/kg i.v. Day 11
# Description: as §1, §2, §3, §4, §5
# Human breast cancer cell line JIMT-1, which was purchased from DSMZ (Deutsche Sammlung von Mikroorganismen und Zellkulturen GmbH), was suspended into saline and subcutaneously transplanted at 5×10^6 cells into the right side of each female SCID mouse (CLEA Japan, Inc.) (Day 0). […]
smiles,measurement,setting,value
"Cc1cc(C)c(CNC(=O)c2cc(Cl)c3c(c2C)O[C@@](C)([C@H]2CC[C@H](N(C)C)CC2)O3)c(=O)[nH]1 [Compound A, (2R)-7-chloro-2-[trans-4-(dimethylamino)cyclohexyl]-N-[(4,6-dimethyl-2-oxo-1,2-dihydropyridin-3-yl)methyl]-2,4-dimethyl-1,3-benzodioxole-5-carboxamide p-toluene sulfonate]",Tumor growth inhibition (TGI),[1],31%
same,Tumor growth inhibition (TGI),[2],41%
same,Tumor growth inhibition (TGI),[3],19%
same,Tumor growth inhibition (TGI),[4],80%
same,Tumor growth inhibition (TGI),[5],38%
same,Tumor growth inhibition (TGI),[6],9%
same,Tumor growth inhibition (TGI),[7],20%
same,Tumor growth inhibition (TGI),[8],20%
same,Tumor growth inhibition (TGI),[9],53%
same,Tumor growth inhibition (TGI),[10],41%

# Reference: US20250276079A1, “COMBINATION OF ANTIBODY-DRUG CONJUGATE WITH EZH1 and/or EZH2 INHIBITOR” (DAIICHI SANKYO COMPANY, LIMITED, priority 2022, published 2025)
